The source of these data is US9192621B2, “Esters and malonates of SATE prodrugs” (IDENIX PHARMACEUTICALS LLC, priority 2012, dated 2015).

The subject of one data set is Zluc cells. In words: Cytotoxicity evaluation, CellTiter-Blue Cell Viability Assay. Type of data set: cell-based. The following applies: read-out: HCV Replicon CC50. A general note: Alamar Blue is a resazurin reagent that responds to reducing activity.
In the next data set the test system is HCV genotype 1b replicon. The experiment in a line: HCV replicon assay (luciferase reporter, Zluc cells). The following applies: Huh-7-derived Zluc cells, 72 hours of incubation. Type of data set: cell-based.
A short description of data set [1]: Cytotoxicity evaluation, CellTiter-Blue Cell Viability Assay. Type of data set: cell-based. The following applies: human, Zluc cells (HCV replicon cells).
Data set [2] can be described thus: Stability in simulated gastric and intestinal fluids. The format is in vitro ADME. Conditions: 100 μM, 2 hours at 37° C., percent of the peak area observed at time zero. How it is done:
Stability in simulated gastric and intestinal fluids: Simulated gastric and intestinal fluids containing pepsin and pancreatin respectively were prepared according to the U.S. Pharmacopoeia USP291 procedure (www.pharmacopeia.cn/v29240/usp29nf24s0_ris1s126.html). Test compound (final concentration 100 μM) was incubated in duplicate in the appropriate fluid for 2 hours at 37° C. The samples were quenched with 200 μl cold acetonitrile, vortexed for 30 seconds and then centrifuged at 16,100 g for 10 min. The supernatants were analyzed by HPLC on a C-18 column with UV detection at 252 nm. The time 0 samples were prepared by adding SGF or SIF fluid to the quenching solvent followed by the test compound. Stability of the compound was determined by peak area for the test compound after incubation and calculated as percent of the peak area observed at time zero.

For orientation: CC50 means the concentration at which the toxic effect on the cells reaches its halfway point. With `CCOc1nc(N)nc2c1ncn2[C@@H]1O[C@H](COP(=O)(NCc2ccccc2)OCCSC(=O)C(C)(C)C(=O)OC(C)C)[C@@H](O)[C@@]1(C)F` (single isomer, unassigned) [Compound 105 Diastereomer 2], in the data set with Zluc cells, the half-maximal cytotoxic concentration (CC50) was more than 50 µM.

As usually defined, the EC50 is the concentration that produces a half-maximal response. Low readings indicate a more potent agent, high ones a less potent agent. `CCCCCC(=O)OCC(C)(C)C(=O)SCCOP(=O)(NCc1ccccc1)OCC1O[C@@H](n2cnc3c(=O)[nH]c(N)nc32)[C@](C)(O)[C@@H]1O` (stereo partly drawn) [Compound 108] displayed an EC50 in the data set on HCV genotype 1b replicon (Hepatitis C virus) not above 250 nM. Further, in data set [1], the CC50 at 72 h is not above 50 µM.

Turning to `CC(=O)OCC(C)(C)C(=O)SCCOP(=O)(NCc1ccccc1)OCC1O[C@@H](n2cnc3c(=O)[nH]c(N)nc32)[C@](C)(O)[C@@H]1O` (stereo partly drawn) [Compound 106], the concentration for a half-maximal effect (EC50) with HCV genotype 1b replicon (Hepatitis C virus) was not above 250 nM. This compound displayed a cytotoxic concentration (CC50) at 72 h in data set [1] not above 50 µM.

For the compound `CCCCCC(=O)OCC(C)(C)C(=O)SCCOP(=O)(NCc1ccccc1)OC[C@H]1O[C@@H](n2cnc3c(OCC)nc(N)nc32)[C@](C)(F)[C@@H]1O` (single isomer, unassigned) [Compound 103 Diastereomer 2], the 50% cytotoxic concentration (CC50) in the data set with Zluc cells was more than 50 µM.

On to `CCOc1nc(N)nc2c1ncn2[C@@H]1O[C@H](COP(=O)(NCc2ccccc2)OCCSC(=O)C(C)(C)C(=O)OC(C)C)[C@@H](O)[C@@]1(C)F` (stereo partly drawn) [Compound 105], for which the EC50 in the data set on HCV genotype 1b replicon (Hepatitis C virus) is not above 250 nM. For the same compound, the CC50 at 72 h in data set [1] is more than 50 µM.

On to `CCOc1nc(N)nc2c1ncn2[C@@H]1O[C@H](COP(=O)(NCc2ccccc2)OCCSC(=O)C(C)(C)COC(C)=O)[C@@H](O)[C@@]1(C)F` (single isomer, unassigned) [Compound 101 Diastereomer 1], for which the EC50 with HCV genotype 1b replicon (Hepatitis C virus) is not above 250 nM. Further, the cytotoxic concentration (CC50) at 72 h in data set [1] was not above 50 µM.

In turn, `CCCCCC(=O)OCC(C)(C)C(=O)SCCOP(=O)(NCc1ccccc1)OC[C@H]1O[C@@H](n2cnc3c(OCC)nc(N)nc32)[C@](C)(F)[C@@H]1O` (single isomer, unassigned) [Compound 103 Diastereomer 1] showed an EC50 in the data set on HCV genotype 1b replicon (Hepatitis C virus) not above 250 nM. In addition, the CC50 at 72 h in data set [1] is more than 50 µM.

In the data set on HCV genotype 1b replicon (Hepatitis C virus), `CCCC(=O)OCC(C)(C)C(=O)SCCOP(=O)(NCc1ccccc1)OC[C@H]1O[C@@H](n2cnc3c(OCC)nc(N)nc32)[C@](C)(F)[C@@H]1O` (stereo partly drawn) [Compound 102] registered an EC50 not above 250 nM. In data set [1], this compound showed a CC50 at 72 h not above 50 µM.

On to `CCOc1nc(N)nc2c1ncn2[C@@H]1O[C@H](COP(=O)(NCc2ccccc2)OCCSC(=O)C(C)(C)C(=O)OC(C)C)[C@@H](O)[C@@]1(C)F` (single isomer, unassigned) [Compound 105 Diastereomer 1], for which the half-maximal effective concentration (EC50) in the data set on HCV genotype 1b replicon (Hepatitis C virus) was not above 250 nM. Moreover, the CC50 at 72 h in data set [1] was more than 50 µM.

For the compound `CCCCCC(=O)OCC(C)(C)C(=O)SCCOP(=O)(NCc1ccccc1)OC[C@H]1O[C@@H](n2cnc3c(OCC)nc(N)nc32)[C@](C)(F)[C@@H]1O` (stereo partly drawn) [Compound 103], the EC50 in the data set with HCV genotype 1b replicon (Hepatitis C virus) is not above 250 nM. In data set [1], this compound yielded a CC50 at 72 h of more than 50 µM.

`CCCC(=O)OCC(C)(C)C(=O)SCCOP(=O)(NCc1ccccc1)OCC1O[C@@H](n2cnc3c(=O)[nH]c(N)nc32)[C@](C)(O)[C@@H]1O` (stereo partly drawn) [Compound 107]: the concentration for a half-maximal effect (EC50) in the data set with HCV genotype 1b replicon (Hepatitis C virus) was not above 250 nM. Further, in data set [1], the CC50 at 72 h was not above 50 µM. In addition, the “Stability SGF” value in data set [2] (simulated gastric fluid containing pepsin) is “+++ (50<+++<100)”. In data set [2] (simulated intestinal fluid containing pancreatin), the “Stability SIF” value is reported as “+ (+≦25)”.

The compound `CCOc1nc(N)nc2c1ncn2[C@@H]1O[C@H](COP(=O)(NCc2ccccc2)OCCSC(=O)C(C)(C)COC(C)=O)[C@@H](O)[C@@]1(C)F` (stereo partly drawn) [Compound 101] gave an EC50 in the data set with HCV genotype 1b replicon (Hepatitis C virus) not above 250 nM. Moreover, the CC50 at 72 h in data set [1] is not above 50 µM.

In the data set on HCV genotype 1b replicon, `CCOc1nc(N)nc2c1ncn2[C@@H]1O[C@H](COP(=O)(NCc2ccccc2)OCCSC(=O)C(C)(C)COC(C)=O)[C@@H](O)[C@@]1(C)F` (single isomer, unassigned) [Compound 101 Diastereomer 2] yielded an EC50 not above 250 nM.

For `CCOc1nc(N)nc2c1ncn2[C@@H]1OC(COP(=O)(NCc2ccccc2)OCCSC(=O)C(C)(C)COC(=O)C(C)C)[C@@H](O)[C@@]1(C)F` (stereo partly drawn) [Compound 104], in the data set on HCV genotype 1b replicon (Hepatitis C virus), the EC50 is not above 250 nM. The compound further had a CC50 at 72 h in data set [1] not above 50 µM.
